From patent US8729082B2, “Substituted imidazoquinoxalines” (Bayer Intellectual Property GmbH, priority 2009, dated 2014) come the findings set out here.

The structures appear in SMILES notation.

The assay addresses T1, human kinase Mps-1 (Homo sapiens, UniProt P33981).
T1 construct: N-terminally GST-tagged human full length recombinant Mps-1 kinase; purchased Invitrogen, Karslruhe, Germany PV4071
T1 sequence (P33981 1-857): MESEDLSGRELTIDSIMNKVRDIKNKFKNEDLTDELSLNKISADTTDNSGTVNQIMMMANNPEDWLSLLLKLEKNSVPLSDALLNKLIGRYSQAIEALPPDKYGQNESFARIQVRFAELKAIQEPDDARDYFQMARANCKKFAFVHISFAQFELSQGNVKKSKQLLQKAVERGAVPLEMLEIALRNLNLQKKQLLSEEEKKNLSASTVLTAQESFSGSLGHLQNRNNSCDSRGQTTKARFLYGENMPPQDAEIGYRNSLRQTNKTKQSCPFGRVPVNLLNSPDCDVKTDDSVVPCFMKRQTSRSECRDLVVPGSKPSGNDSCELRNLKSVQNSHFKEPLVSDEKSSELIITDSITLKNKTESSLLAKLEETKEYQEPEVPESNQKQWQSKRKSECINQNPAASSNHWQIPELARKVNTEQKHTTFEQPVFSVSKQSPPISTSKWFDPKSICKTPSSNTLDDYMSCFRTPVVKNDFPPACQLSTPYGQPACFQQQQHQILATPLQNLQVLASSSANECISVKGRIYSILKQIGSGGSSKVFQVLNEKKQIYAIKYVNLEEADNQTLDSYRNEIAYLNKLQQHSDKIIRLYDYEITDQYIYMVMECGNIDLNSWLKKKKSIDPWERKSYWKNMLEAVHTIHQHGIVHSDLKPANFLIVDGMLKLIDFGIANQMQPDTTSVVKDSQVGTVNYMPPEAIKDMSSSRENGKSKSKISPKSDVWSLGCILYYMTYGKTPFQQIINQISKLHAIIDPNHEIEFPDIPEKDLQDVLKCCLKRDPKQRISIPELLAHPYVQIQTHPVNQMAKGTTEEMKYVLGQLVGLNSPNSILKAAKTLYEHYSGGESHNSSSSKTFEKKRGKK
The experiment in a line: Mps-1 kinase assay (HTRF). The assay is classed as biochemical. Particulars: lowATP; mean; read-out: Mps1 lowATP mean IC50. As to the method: The human kinase Mps-1 phosphorylates a biotinylated substrate peptide. Detection of the phosphorylated product is achieved by homogenous time-resolved fluorescence resonance energy transfer (HTRF) from Europium-labelled anti-phospho-Serine/Threonine antibody as donor to streptavidin labelled with cross-linked allophycocyanin (SA-XLent) as acceptor. Compounds are tested for their inhibition of the kinase activity.
N-terminally GST-tagged human full length recombinant Mps-1 kinase (purchased from Invitrogen, Karslruhe, Germany, cat. no PV4071) was used. As substrate for the kinase reaction a biotinylated peptide of the amino-acid sequence PWDPDDADITEILG (C-terminus in amide form, purchased from Biosynthan GmbH, Berlin) was used.
For the assay 50 nl of a 100-fold concentrated solution of the test compound in DMSO was pipetted into a black low volume 384 well microtiter plate (Greiner Bio-One, Frickenhausen, Germany), 2 μl of a solution of Mps-1 in assay buffer [0.1 mM sodium-ortho-vanadate, 10 mM MgCl2, 2 mM DTT, 25 mM Hepes pH 7.7, 0.05% BSA, 0.001% Pluronic F-127] were added and the mixture was incubated for 15 min at 22° C. to allow pre-binding of the test compounds to Mps-1 before the start of the kinase reaction. Then the kinase reaction was started by the addition of 3 μl of a solution of 16.7 μM ATP and 1.67 μM peptide in assay buffer and the resulting mixture was incubated for a reaction time of 60 min at 22° C. The concentration of Mps-1 in the assay was adjusted to the activity of the enzyme lot and was chosen appropriate to have the assay in the linear range, typical enzyme concentrations were in the range of about 1 nM (final conc. in the 5 μl assay volume). The reaction was stopped by the addition of 3 μl of a solution of HTRF detection reagents (100 mM Hepes pH 7.4, 0.1% BSA, 40 mM EDTA, 140 nM Streptavidin-XLent [#61GSTXLB, Fa. Cis Biointernational, Marcoule, France], 1.5 nM anti-phospho(Ser/Thr)-Europium-antibody [#AD0180, PerkinElmer LAS, Rodgau-Jügesheim, Germany].
The resulting mixture was incubated 1 h at 22° C. to allow the binding of the phosphorylated peptide to the anti-phospho(Ser/Thr)-Europium-antibody. Subsequently the amount of phosphorylated substrate was evaluated by measurement of the resonance energy transfer from the Europium-labelled anti-phospho(Ser/Thr) antibody to the Streptavidin-XLent. Therefore, the fluorescence emissions at 620 nm and 665 nm after excitation at 350 nm was measured in a HTRF reader, e.g. a Rubystar (BMG Labtechnologies, Offenburg, Germany) or a Viewlux (PerkinElmer LAS, Rodgau-Jügesheim, Germany). The ratio of the emissions at 665 nm and at […] was taken as the measure for the amount of phosphorylated substrate. The data were normalised (enzyme reaction without inhibitor=0% inhibition, all other assay components but no enzyme=100% inhibition).
For the molecule `Cc1cccc(CNc2nc3ccccc3n3c(-c4ccc(C(=O)NC5CC5)cc4)cnc23)c1` [Example 2-4, N-cyclopropyl-4-{4-[(3-methylbenzyl)amino]imidazo[1,2-a]quinoxalin-1-yl}benzamide], the IC50 came to 132 nM.

With `O=C(NC1CC1)c1ccc(-c2cnc3c(NCc4cccc(F)c4)nc4ccccc4n23)cc1` [Example 2-5, N-cyclopropyl-4-{4-[(3-fluorobenzyl)amino]imidazo[1,2-a]quinoxalin-1-yl}benzamide], the IC50 was found to be 90 nM.

Regarding `Cc1ccccc1CNc1nc2ccccc2n2c(-c3ccc(C(=O)NC4CC4)cc3)cnc12` [Example 2-6, N-cyclopropyl-4-{4-[(2-methylbenzyl)amino]imidazo[1,2-a]quinoxalin-1-yl}benzamide], the IC50 turned out to be 232 nM.

As for `O=C(NC1CC1)c1ccc(-c2cnc3c(NCc4cccc(Cl)c4)nc4ccccc4n23)cc1` [Example 2-7, 4-{4-[(3-chlorobenzyl)amino]imidazo[1,2-a]quinoxalin-1-yl}-N-cyclopropylbenzamide], the IC50 was 222 nM.

Turning to `O=C(NC1CC1)c1ccc(-c2cnc3c(NCCc4ccccc4)nc4ccccc4n23)cc1` [Example 2-8, N-cyclopropyl-4-{4-[(2-phenylethyl)amino]imidazo[1,2-a]quinoxalin-1-yl}benzamide], the IC50 worked out at 169 nM.

In the case of `O=C(NC1CC1)c1ccc(-c2cnc3c(Nc4ccccc4)nc4ccccc4n23)cc1` [Example 2-9, N-cyclopropyl-4-[4-(phenylamino)imidazo[1,2-a]quinoxalin-1-yl]benzamide], the IC50 came to 545 nM.

As to `CCCCCNc1nc2ccccc2n2c(-c3ccc(C(=O)NC4CC4)cc3)cnc12` [Example 2-10, N-cyclopropyl-4-[4-(pentylamino)imidazo[1,2-a]quinoxalin-1-yl]benzamide], the IC50 stood at 92.4 nM.

Take `O=C(NC1CC1)c1ccc(-c2cnc3c(NCCCN4CCCC4=O)nc4ccccc4n23)cc1` [Example 2-11, N-cyclopropyl-4-(4-{[3-(2-oxopyrrolidin-1-yl)propyl]amino}imidazo[1,2-a]quinoxalin-1-yl)benzamide]: the IC50 worked out at 296 nM.

`COCCNc1nc2ccccc2n2c(-c3ccc(C(=O)NC4CC4)cc3)cnc12` [Example 2-12, N-cyclopropyl-4-{4-[(2-methoxyethyl)amino]imidazo[1,2-a]quinoxalin-1-yl}benzamide]: the IC50 was found to be 180 nM.

With `COc1ccccc1CNc1nc2ccccc2n2c(-c3ccc(C(=O)NC4CC4)cc3)cnc12` [Example 2-13, N-cyclopropyl-4-{4-[(2-methoxybenzyl)amino]imidazo[1,2-a]quinoxalin-1-yl}benzamide], the IC50 is 334 nM.

For `O=C(NC1CC1)c1ccc(-c2cnc3c(NCc4ccccc4F)nc4ccccc4n23)cc1` [Example 2-14, N-cyclopropyl-4-{4-[(2-fluorobenzyl)amino]imidazo[1,2-a]quinoxalin-1-yl}benzamide], the IC50 was 72.1 nM.

Consider `O=C(NC1CC1)c1ccc(-c2cnc3c(NCc4ccc(F)cc4)nc4ccccc4n23)cc1` [Example 2-15, N-cyclopropyl-4-{4-[(4-fluorobenzyl)amino]imidazo[1,2-a]quinoxalin-1-yl}benzamide], for which the IC50 is 56.3 nM.

With `O=C(NC1CC1)c1ccc(-c2cnc3c(NCc4ccccc4)nc4ccccc4n23)cc1` [Example 2-16, 4-[4-(benzylamino)imidazo[1,2-a]quinoxalin-1-yl]-N-cyclopropylbenzamide], the IC50 was found to be 67.5 nM.

On to `COc1ccc(CCNc2nc3ccccc3n3c(-c4ccc(C(=O)NC5CC5)cc4)cnc23)cc1` [Example 2-17, N-cyclopropyl-4-(4-{[2-(4-methoxyphenyl)ethyl]amino}imidazo[1,2-a]quinoxalin-1-yl)benzamide], for which the IC50 was 565 nM.

Take `O=C(NC1CC1)c1ccc(-c2cnc3c(NCc4cccs4)nc4ccccc4n23)cc1` [Example 2-18, N-cyclopropyl-4-{4-[(thiophen-2-ylmethyl)amino]imidazo[1,2-a]quinoxalin-1-yl}benzamide]: the IC50 was 46.6 nM.
